In ChEMBL document CHEMBL4402568, “Antiepileptic Drug Carbamazepine Binds to a Novel Pocket on the Wnt Receptor Frizzled-8” (J Med Chem, 2020):
Calls of active or inactive are those of the source. The calls are words filed in the database; no cut-off is given here.

Key:
[1] = target: Frizzled-5 (Homo sapiens) (UniProt Q13467); experiment: Binding affinity to immobilized human Frizzled-5 CRD (P31 to Y150 resideus) transfected with pDisplay_BirA-ER plasmid in HEK293T cells for biotinylation by surface plasmon resonance assay
[2] = target: Frizzled-8 (Mus musculus) (UniProt Q61091); experiment: Binding affinity to immobilized mouse C-terminal Rhinovirus 3C cleavage site-fused 6xHis-tagged Frizzled-8 CRD (Q33 to G173 resideus) transfected with pDisplay_BirA-ER plasmid in HEK293T cells for biotinylation assessed as protein-compound complex formation at 5 to 50 uM by surface plasmon resonance assay
[3] = target: Frizzled-7 (Homo sapiens) (UniProt O75084); experiment: Binding affinity to immobilized human Frizzled-7 CRD (Q33 to G173 resideus) transfected with pDisplay_BirA-ER plasmid in HEK293T cells for biotinylation by surface plasmon resonance assay
[4] = target: Frizzled-8 (Mus musculus) (UniProt Q61091); conditions: 8 to 64 uM
Description: Inhibition of full length mouse Frizzled-8 transfected in Frizzled-1/2/7 knockout HEK293T cells using lentiviral expression system cotransfected with Renilla luciferase assessed as reduction in Wnt3a signaling by measuring luciferase activity at 8 to 64 uM measured after 24 hrs by Dual-Glo luciferase reporter assay

Chain of Frizzled-8 (Mus musculus) (Q61091 whole entry, the tested form may be a part): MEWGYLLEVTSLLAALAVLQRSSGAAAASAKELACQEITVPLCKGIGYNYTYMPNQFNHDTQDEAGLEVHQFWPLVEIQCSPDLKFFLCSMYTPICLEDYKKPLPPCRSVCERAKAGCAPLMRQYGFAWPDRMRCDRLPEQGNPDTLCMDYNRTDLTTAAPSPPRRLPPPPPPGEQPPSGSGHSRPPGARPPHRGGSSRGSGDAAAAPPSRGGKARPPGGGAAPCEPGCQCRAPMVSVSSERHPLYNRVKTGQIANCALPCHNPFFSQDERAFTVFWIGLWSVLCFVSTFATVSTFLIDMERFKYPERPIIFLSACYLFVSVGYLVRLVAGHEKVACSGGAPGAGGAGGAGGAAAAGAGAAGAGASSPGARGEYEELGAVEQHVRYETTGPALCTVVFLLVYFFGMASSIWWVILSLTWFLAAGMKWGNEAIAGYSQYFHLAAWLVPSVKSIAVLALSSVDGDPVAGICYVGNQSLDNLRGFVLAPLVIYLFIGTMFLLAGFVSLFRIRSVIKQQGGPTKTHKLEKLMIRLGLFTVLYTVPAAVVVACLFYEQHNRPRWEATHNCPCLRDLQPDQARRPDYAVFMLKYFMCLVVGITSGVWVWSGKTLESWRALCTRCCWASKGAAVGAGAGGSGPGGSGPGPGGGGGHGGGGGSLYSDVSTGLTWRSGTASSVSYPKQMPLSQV
Chain of Frizzled-5 (Homo sapiens) (Q13467 whole entry, the tested form may be a part): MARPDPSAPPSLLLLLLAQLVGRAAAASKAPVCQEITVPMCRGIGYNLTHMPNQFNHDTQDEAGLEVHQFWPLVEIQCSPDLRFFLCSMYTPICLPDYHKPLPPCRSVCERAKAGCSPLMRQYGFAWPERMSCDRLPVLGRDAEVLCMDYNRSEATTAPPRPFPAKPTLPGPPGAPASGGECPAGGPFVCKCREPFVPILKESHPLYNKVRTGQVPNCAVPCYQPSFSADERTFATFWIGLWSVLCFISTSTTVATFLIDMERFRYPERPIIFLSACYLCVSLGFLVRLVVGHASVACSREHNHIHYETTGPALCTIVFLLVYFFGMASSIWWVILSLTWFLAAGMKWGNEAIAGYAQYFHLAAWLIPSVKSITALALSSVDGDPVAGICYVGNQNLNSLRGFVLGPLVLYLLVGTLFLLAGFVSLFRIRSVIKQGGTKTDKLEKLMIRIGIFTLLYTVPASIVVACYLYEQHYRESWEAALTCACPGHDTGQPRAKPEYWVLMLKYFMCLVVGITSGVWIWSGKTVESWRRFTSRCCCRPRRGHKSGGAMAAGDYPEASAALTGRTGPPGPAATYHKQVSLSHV

SMILES	Activity [1]	Activity [2]	Activity [3]	inhibition [4]
NC(=O)N1c2ccccc2C=Cc2ccccc21	inactive	Active	inactive	Active
CCN(CC)CCCC(C)Nc1c2ccc(Cl)cc2nc2ccc(OC)cc12 (stereo not given)		inactive		
